Reference: patent US9586956B2, “Isoquinoline and naphthyridine derivatives” (Genentech, Inc., priority 2012, dated 2017)

These compounds were tested against T1, purified human MAP4K4 kinase domain (Homo sapiens, UniProt O95819) (assay: MAP4K4 Inhibition Assay Protocol No. 1 (Caliper LabChip, moesin-derived peptide phosphorylation)). Conditions: Assay 1; 1 nM enzyme, 10 uM ATP, 45 min.
T1 construct: purified human MAP4K4 kinase domain
Type: biochemical
How it was run: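 1 nM enzyme with 1 uM 5-carboxyfluorescein-labelled moesin peptide and 10 uM ATP in 50 mM Hepes pH 7.2, 10 mM MgCl2, 2% DMSO, 45 min at room temperature, then EDTA stop. Phosphorylated fraction of peptide measured by microfluidic mobility shift; IC50 from four-parameter fit.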

T1 sequence (O95819 25-289 limits assumed): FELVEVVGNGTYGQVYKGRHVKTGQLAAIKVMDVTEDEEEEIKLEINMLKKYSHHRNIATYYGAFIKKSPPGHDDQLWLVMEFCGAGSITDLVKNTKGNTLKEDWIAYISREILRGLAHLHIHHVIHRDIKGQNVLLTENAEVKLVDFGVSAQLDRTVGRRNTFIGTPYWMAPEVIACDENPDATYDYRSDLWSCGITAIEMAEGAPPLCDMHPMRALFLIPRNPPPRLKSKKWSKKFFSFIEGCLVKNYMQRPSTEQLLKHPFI

| IC50 | SMILES |
| --- | --- |
| 0.0357 µM | Nc1ncc(C(=O)NC2CN(C(=O)C3CC3)C2)c2ccc(-c3cccc(F)c3)cc12 [Example 126, 1-amino-N-[1-(cyclo-propanecarbonyl)azetidin-3-yl]-7-(3-fluorophenyl)isoquinoline-4-carboxamide] |

What follows are compounds tested against T1, purified human MAP4K4 kinase domain (assay: MAP4K4 Inhibition Assay Protocol No. 2 (Z'-LYTE FRET)). Conditions: Assay 2; 1 nM enzyme, 10 uM ATP, 60 min.
Type: biochemical
Description: The kinase activity of purified human MAP4K4 kinase domain was monitored using Z'-LYTE™ technology from Invitrogen to determine inhibition constants (IC50) of small molecule inhibitors. The Z'-LYTE™ biochemical assay employs a fluorescence-based, coupled-enzyme format and is based on the differential sensitivity of phosphorylated and non-phosphorylated peptides to proteolytic cleavage. In the primary reaction, the kinase transfers the gamma-phosphate of ATP to a single tyrosine, serine or threonine residue in a synthetic FRET-peptide. In the secondary reaction, a site-specific protease recognizes and cleaves non-phosphorylated FRET-peptides. Phosphorylation of FRET-peptides suppresses cleavage by the Development Reagent. Cleavage disrupts FRET between the donor (i.e., coumarin) and acceptor (i.e., fluorescein) fluorophores on the FRET-peptide, whereas uncleaved, phosphorylated FRET-peptides maintain FRET. To determine inhibition constants (IC50), compounds were serially diluted in DMSO and added to 10 uL kinase reactions containing 1 nM purified MAP4K4 enzyme, 2 uM ser/thr7 Z'-LYTE™ substrate, 10 uMATP, 50 mM Hepes (pH 7.5), 10 mM MgCl2, 1 mM EGTA, 0.01% Brij-35, and 2% DMSO. Reactions were incubated at room temperature in Corning Black 384 well plates (Corning#3573) for 60 minutes and stopped by the addition of 5 uL of Z'-LYTE™ development reagent A and incubated at room temp for 60 minutes. The plate is then analyzed on Perkin Elmer Envision by FRET mode. The high ratio of coumarin/fluorescein represents 0% phosphorylation rate while low ratio of coumarin/fluorescein represents 100% phosphorylation rate. The following equations are used to determine extent of peptide phosphorylation or inhibition: […]

| IC50 | SMILES |
| --- | --- |
| 0.0287 µM | Cn1cnc(-c2cnc(N)c3cc(-c4cccc(F)c4)ccc23)c1 [Example 10, 7-(3-fluorophenyl)-4-(1-methylimidazol-4-yl)isoquinolin-1-amine] |
| 0.00873 µM | Nc1ncc(-c2ncco2)c2ccc(-c3cccc(F)c3)cc12 [Example 11, 7-(3-fluorophenyl)-4-oxazol-2-yl-isoquinolin-1-amine] |
| 0.218 µM | Cn1ncnc1-c1cnc(N)c2cc(-c3cccc(F)c3)ccc12 [Example 12, 7-(3-fluorophenyl)-4-(2-methyl-1,2,4-triazol-3-yl)isoquinolin-1-amine] |
| 0.00455 µM | Nc1ncc(C(=O)NC2CN(C(=O)N3CCS(=O)(=O)CC3)C2)c2ccc(-c3cccc(F)c3)nc12 [Example 15, 8-amino-N-(1-(1,1-dioxidothiomorpholine-4-carbonyl)azetidin-3-yl)-2-(3-fluorophenyl)-1,7-naphthyridine-5-carboxamide] |
| 0.0045 µM | CC(O)C(=O)N1CC(NC(=O)c2cnc(N)c3nc(-c4cccc(F)c4)ccc23)C1 (stereo not shown) [Example 16, 8-amino-2-(3-fluorophenyl)-N-(1-(2-hydroxypropanoyl)azetidin-3-yl)-1,7-naphthyridine-5-carboxamide] |
| 0.0195 µM | Nc1ncc(C(=O)NC2CN(C(=O)C3COC3)C2)c2ccc(-c3cccc(F)c3)nc12 [Example 17, 8-amino-2-(3-fluorophenyl)-N-(1-(oxetane-3-carbonyl)azetidin-3-yl)-1,7-naphthyridine-5-carboxamide] |
| 0.0116 µM | CS(=O)(=O)N1CC(NC(=O)c2cnc(N)c3nc(-c4cccc(F)c4)ccc23)C1 [Example 18, 8-amino-2-(3-fluorophenyl)-N-(1-(methylsulfonyl)azetidin-3-yl)-1,7-naphthyridine-5-carboxamide] |
| 0.00385 µM | CN(C)S(=O)(=O)N1CC(NC(=O)c2cnc(N)c3nc(-c4cccc(F)c4)ccc23)C1 [Example 19, 8-amino-N-(1-(N,N-dimethylsulfamoyl)azetidin-3-yl)-2-(3-fluorophenyl)-1,7-naphthyridine-5-carboxamide] |
| 0.0068 µM | Nc1ncc(C(=O)NC2CN(C(=O)CN3CCOCC3)C2)c2ccc(-c3cccc(F)c3)nc12 [Example 20, 8-amino-2-(3-fluorophenyl)-N-(1-(2-morpholinoacetyl)azetidin-3-yl)-1,7-naphthyridine-5-carboxamide] |
| 0.0018 µM | Nc1ncc(C(=O)NC2CN(S(N)(=O)=O)C2)c2ccc(-c3cccc(F)c3)nc12 [Example 21, 8-amino-2-(3-fluorophenyl)-N-(1-sulfamoylazetidin-3-yl)-1,7-naphthyridine-5-carboxamide] |
| 0.0244 µM | Nc1ncc(C(=O)NC2CN(CC(F)(F)F)C2)c2ccc(-c3cccc(F)c3)nc12 [Example 22, 8-amino-2-(3-fluorophenyl)-N-(1-(2,2,2-trifluoroethyl)azetidin-3-yl)-1,7-naphthyridine-5-carboxamide] |
| 0.0285 µM | Nc1ncc(C(=O)NC2CN(S(=O)(=O)C(F)(F)F)C2)c2ccc(-c3cccc(F)c3)nc12 [Example 23, 8-amino-2-(3-fluorophenyl)-N-(1-((trifluoromethyl)sulfonyl)azetidin-3-yl)-1,7-naphthyridine-5-Carboxamide] |
| 0.004 µM | C[C@@H](O)C(=O)N1CC(NC(=O)c2cnc(N)c3nc(-c4cccc(F)c4)ccc23)C1 [Example 24, (R)-8-amino-2-(3-fluorophenyl)-N-(1-(2-hydroxypropanoyl)azetidin-3-yl)-1,7-naphthyridine-5-carboxamide] |
| 0.00918 µM | C[C@H](O)C(=O)N1CC(NC(=O)c2cnc(N)c3nc(-c4cccc(F)c4)ccc23)C1 [Example 25, (S)-8-amino-2-(3-fluorophenyl)-N-(1-(2-hydroxypropanoyl)azetidin-3-yl)-1,7-naphthyridine-5-carboxamide] |
| 0.00411 µM | CC(=O)N1CC(NC(=O)c2cnc(N)c3nc(-c4cccc(F)c4)ccc23)C1 [Example 26, N-(1-acetylazetidin-3-yl)-8-amino-2-(3-fluorophenyl)-1,7-naphthyridine-5-carboxamide] |
| 0.0147 µM | Nc1ncc(C(=O)NC2CN(C(=O)N3CCOCC3)C2)c2ccc(-c3cccc(F)c3)nc12 [Example 27, 8-amino-2-(3-fluorophenyl)-N-(1-(morpholine-4-carbonyl)azetidin-3-yl)-1,7-naphthyridine-5-carboxamide] |
| 0.002 µM | Nc1ncc(-c2nnco2)c2ccc(-c3cccc(F)c3)nc12 [Example 28, 2-(3-fluorophenyl)-5-(1,3,4-oxadiazol-2-yl)-1,7-naphthyridin-8-amine] |
| 0.0608 µM | CCC(=O)NC1CN(C(=O)c2cnc(N)c3nc(-c4cccc(F)c4)ccc23)C1 [Example 29, N-(1-(8-amino-2-(3-fluorophenyl)-1,7-naphthyridine-5-carbonyl)azetidin-3-yl)propionamide] |
| 0.0139 µM | Nc1ncc(C(=O)N2CC(NC(=O)C3CC3)C2)c2ccc(-c3cccc(F)c3)nc12 [Example 30, N-(1-(8-amino-2-(3-fluorophenyl)-1,7-naphthyridine-5-carbonyl)azetidin-3-yl)cyclopropanecarboxamide] |
| 0.284 µM | Nc1ncc(C(=O)N2CC(N(C(=O)C3CC3)C(=O)C3CC3)C2)c2ccc(-c3cccc(F)c3)nc12 [Example 31, N-(1-(8-amino-2-(3-fluorophenyl)-1,7-naphthyridine-5-carbonyl)azetidin-3-yl)-N-(cyclopropanecarbonyl)cyclopropanecarboxamide] |
| 0.0198 µM | CC(=O)NC1CN(C(=O)c2cnc(N)c3nc(-c4cccc(F)c4)ccc23)C1 [Example 32, N-(1-(8-amino-2-(3-fluorophenyl)-1,7-naphthyridine-5-carbonyl)azetidin-3-yl)acetamide] |
| 0.00165 µM | Nc1ncc(C(=O)NC2CCC2)c2ccc(-c3cccc(F)c3)nc12 [Example 33, 8-amino-N-cyclobutyl-2-(3-fluorophenyl)-1,7-naphthyridine-5-carboxamide] |
| 0.0016 µM | CNC(=O)N1CC(NC(=O)c2cnc(N)c3nc(-c4cccc(F)c4)ccc23)C1 [Example 34, 8-amino-2-(3-fluorophenyl)-N-(1-(methylcarbamoyl)azetidin-3-yl)-1,7-naphthyridine-5-carboxamide] |
| 0.00378 µM | CCC(=O)N1CC(NC(=O)c2cnc(N)c3nc(-c4cccc(F)c4)ccc23)C1 [Example 35, 8-amino-2-(3-fluorophenyl)-N-(1-propionylazetidin-3-yl)-1,7-naphthyridine-5-carboxamide] |
| 0.00294 µM | Nc1ncc(C(=O)NC2CN(C(=O)C3CC3)C2)c2ccc(-c3cccc(F)c3)nc12 [Example 37, 8-amino-N-(1-(cyclopropanecarbonyl)azetidin-3-yl)-2-(3-fluorophenyl)-1,7-naphthyridine-5-carboxamide] |
| 0.00569 µM | Nc1ncc(C(=O)NC2COC2)c2ccc(-c3cccc(F)c3)nc12 [Example 38, 8-amino-2-(3-fluorophenyl)-N-(oxetan-3-yl)-1,7-naphthyridine-5-carboxamide] |
| 0.0044 µM | COCC(=O)N1CC(NC(=O)c2cnc(N)c3nc(-c4cccc(F)c4)ccc23)C1 [Example 39, 8-amino-2-(3-fluorophenyl)-N-(1-(2-methoxyacetyl)azetidin-3-yl)-1,7-naphthyridine-5-carboxamide] |
